Reference: PMC10893631, “Receptor-based pharmacophore modeling, molecular docking, synthesis and biological evaluation of novel VEGFR-2, FGFR-1, and BRAF multi-kinase inhibitors” (BMC Chemistry, 2024)
Like-named read-outs stand apart in the source and are kept apart here.

Experiments:
Type in all cases: cell-based, human
[1] = test system: NCI panel of 60 tumor cell lines; test: NCI SRB growth inhibition, whole panel mean (single dose 10 µM / five-dose); details: Homo sapiens, 10 µM
Protocol: Screening of cytotoxic activity against a panel of sixty human tumor cell lines The selected compounds by NCI were evaluated for their anticancer activity in a two- stage process. […] Then, the output from the single dose screen is reported as a mean graph. […] Assay protocol. […] For a typical screening experiment, cells are inoculated into 96 well microtiter plates in 100 µL at plating densities ranging from 5000 to 40,000 cells/well depending on the doubling time of individual cell lines. […] After 24 h, two plates of each cell line are fixed in situ with TCA, to represent a measurement of the cell population for each cell line at the time of drug addition (Tz). The experimental drugs are solubilized in dimethyl sulfoxide at 400-fold the desired final maximum test concentration and stored frozen prior to use. At the time of drug addition, an aliquot of frozen concentrate is thawed and diluted to twice the desired final maximum test concentration with complete medium containing 50 µg/mL gentamicin. Additional four, 10-fold or ½ log serial dilutions are made to provide a total of five drug concentrations plus control. Aliquots of 100 mL of these different drug dilutions are added to the appropriate microtiter wells already containing […] of medium, resulting in the required final drug concentrations. […] For adherent cells, the assay is terminated by the addition of cold TCA. […] The supernatant is discarded, and the plates are washed five times with tap water and air dried. Sulforhodamine B (SRB) solution ([…]) at 0.4% (w/v) in 1% acetic acid is added to each well, and plates are incubated for 10 min at room temperature. After staining, unbound dye is removed by washing five times with 1% acetic acid and the plates are air dried. […] Using the seven absorbance measurements [time zero, (Tz), control growth, (C), and test growth in the presence of drug at the five concentration levels (Ti)], the percentage growth is calculated at each of the drug concentrations levels. Percentage growth inhibition is calculated as: [(Ti Tz)/(C–Tz)] x 100 for concentrations for which Ti>/=Tz and [(Ti-Tz)/Tz] x 100 for concentrations for which Ti < Tz. Three dose response parameters are calculated for each experimental agent. […] The drug concentration resulting in total growth inhibition (TGI) is calculated from Ti = Tz. […] Values are calculated for each of these three parameters if the level of activity is reached; however, if the effect is not reached or is exceeded, the value for that parameter is expressed as greater or less than the maximum or minimum concentration tested.

[2] = test system: 786–0; test: NCI SRB growth inhibition (single dose 10 µM / five-dose); details: Homo sapiens; 786–0 (Renal cancer), 10 µM; read-out: GI%
In short: (§1)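 Growth inhibition is derived from seven absorbance readings per agent (Tz, C and five Ti). Where a parameter level is not reached or is exceeded, the value is given as greater or less than the highest or lowest concentration tested.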

[3] = test system: UO-31; test: as above; details: Homo sapiens; UO-31 (Renal cancer), 10 µM; read-out: GI%
In short: as §1

[4] = test system: SW-620; test: as above; details: Homo sapiens; SW-620 (Colon cancer), 10 µM; read-out: GI%
In short: as §1

[5] = test system: BT-549; test: as above; details: Homo sapiens; BT-549 (Breast cancer), 10 µM; read-out: GI%
In short: as §1

[6] = test system: MOLT-4; test: as above; details: Homo sapiens; MOLT-4 (Leukemia), 10 µM; read-out: GI%
In short: as §1

[7] = test system: A549/ATCC; test: as above; details: Homo sapiens; A549/ATCC (Non-small cell lung cancer), 10 µM; read-out: GI%
In short: as §1

[8] = test system: MCF7; test: as above; details: Homo sapiens; MCF7 (Breast cancer), 10 µM; read-out: GI%
In short: as §1

[9] = test system: UACC-257; test: as above; details: Homo sapiens; UACC-257 (Melanoma), 10 µM; read-out: GI%
In short: as §1

[10] = test system: HL-60(TB); test: as above; details: Homo sapiens; HL-60(TB) (Leukemia), 10 µM; read-out: GI%
In short: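 TCA fixation ends the assay for adherent lines; unbound SRB is rinsed off five times with 1% acetic acid. Drug is added from a DMSO concentrate at 400× the maximum final concentration, made up to 2× in gentamicin-containing medium, then halved on addition to wells.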

[11] = test system: HCT-116; test: as above; details: Homo sapiens, HCT-116; read-out: GI%
In short: as §1

[12] = test system: TK-10; test: as above; details: Homo sapiens; TK-10 (Renal cancer), 10 µM; read-out: GI%
In short: as §1

[13] = test system: HS 578 T; test: as above; details: Homo sapiens; HS 578 T (Breast cancer), 10 µM; read-out: GI%
In short: as §1

[14] = test system: CAKI-1; test: as above; details: Homo sapiens; CAKI-1 (Renal cancer), 10 µM; read-out: GI%
In short: as §1

[15] = test system: HCC-2998; test: as above; details: Homo sapiens; HCC-2998 (Colon cancer), 10 µM; read-out: GI%
In short: as §1

[16] = test system: UACC-62; test: as above; details: Homo sapiens; UACC-62 (Melanoma), 10 µM; read-out: GI%
In short: as §1

[17] = test system: OVCAR-5; test: as above; details: Homo sapiens; OVCAR-5 (Ovarian cancer), 10 µM; read-out: GI%
In short: as §1

[18] = test system: MALME-3 M; test: as above; details: Homo sapiens; MALME-3 M (Melanoma), 10 µM; read-out: GI%
In short: as §1

[19] = test system: SR; test: as above; details: Homo sapiens; SR (Leukemia), 10 µM; read-out: GI%
In short: as §1

[20] = test system: COLO 205; test: as above; details: Homo sapiens; COLO 205 (Colon cancer), 10 µM; read-out: GI%
In short: as §1

[21] = test system: SF-539; test: as above; details: Homo sapiens; SF-539 (CNS cancer), 10 µM; read-out: GI%
In short: as §1

[22] = test system: MDA-MB-468; test: as above; details: Homo sapiens; MDA-MB-468 (Breast cancer), 10 µM; read-out: GI%
In short: as §1

[23] = test system: OVCAR-8; test: as above; details: Homo sapiens; OVCAR-8 (Ovarian cancer), 10 µM; read-out: GI%
In short: as §1

[24] = mean over NCI 60 cell lines, > 100% = lethal effect, read-out: mean growth inhibition % (GI%)
[25] = mean over NCI panel of 60 tumor cell lines, read-out: Mean growth inhibition %

| SMILES | inhibition at 10 µM [1, 24] | inhibition at 10 µM [1, 25] | inhibition at 10 µM [2] | inhibition at 10 µM [3] | inhibition at 10 µM [4] | inhibition at 10 µM [5] | inhibition at 10 µM [6] | inhibition at 10 µM [7] | inhibition at 10 µM [8] | inhibition at 10 µM [9] | inhibition at 10 µM [10] | inhibition at 10 µM [11] | inhibition at 10 µM [12] | inhibition at 10 µM [13] | inhibition at 10 µM [14] | inhibition at 10 µM [15] | inhibition at 10 µM [16] | inhibition at 10 µM [17] | inhibition at 10 µM [18] | inhibition at 10 µM [19] | further results |
| --- | --- | --- | --- | --- | --- | --- | --- | --- | --- | --- | --- | --- | --- | --- | --- | --- | --- | --- | --- | --- | --- |
| COc1ccc(-c2nc3cc(C(=O)NN=Cc4ccc(OC)c(O)c4)ccc3[nH]2)cc1 [8l, N'-(3-Hydroxy-4-methoxybenzylidene)-2-(4-methoxyphenyl)-1H-benzo[d]imidazole-5-carbohydrazide] | 34.4% | 34.4% | 18.1% | 9.13% | 21.8% | 10.4% | 78.6% | 5.94% | 77.8% | 52.9% | 52.2% | 43.8% | < 5% | 46.2% | < 5% | 15% | 47.6% | < 5% | 87.6% | 72.2% | inhibition at 10 µM [20]: 76.8%; inhibition at 10 µM [21]: 42.6%; inhibition at 10 µM [22]: 44.4%; inhibition at 10 µM [23]: 28.1% |
| COc1ccc(OC)c(C=NNC(=O)c2ccc3[nH]c(-c4ccc(Cl)cc4)nc3c2)c1 [8t, 2-(4-Chlorophenyl)-N'-(2,5-dimethoxybenzylidene)-1H-benzo[d]imidazole-5-carbohydrazide] | 33.5% | 33.5% | 26.6% | 31.9% | 7.98% | 25.7% | 58.9% | 8.76% | 48.1% | < 5% | 12.9% | 43.1% | 10.9% | 48.8% | 38.4% | 14.6% | 24.3% | < 5% | 18.4% | 31.4% | inhibition at 10 µM [20]: 18.3%; inhibition at 10 µM [21]: 45.3%; inhibition at 10 µM [22]: 30.4%; inhibition at 10 µM [23]: 17.2% |
